Results from patent US20250313563A1, “GLYCOGEN SYNTHASE KINASE 3 INHIBITORS AND USES THEREOF” (The Broad Institute, Inc., priority 2022, published 2025).
Read-outs that look alike come from different tables or passages of the source.

Key:
[1] = target: GSK3α (GST-full length GSK3α) (Homo sapiens (Human), UniProt P49840); experiment: GSK3α TR-FRET kinase assay; type: biochemical
Outline: (§1)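 IC50s came from the normalized 665/615 TR-FRET ratio after Tb-anti-pSer641 antibody and streptavidin-d2 detection of phosphorylated biotin-glycogen synthase peptide (200 nM). ATP was 4 μM for GSK3α, 2 μM for GSK3b, or 1 mM; 1 nM enzyme, 100 min, ambient, pH 7.5, after 30-min compound preincubation.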

[2] = target: GSK3b (GST-full length GSK3b) (Homo sapiens (Human), UniProt P49841); experiment: GSK3b TR-FRET kinase assay; type: biochemical
Chain of GSK3b (GST-full length GSK3b) (P49841 whole entry): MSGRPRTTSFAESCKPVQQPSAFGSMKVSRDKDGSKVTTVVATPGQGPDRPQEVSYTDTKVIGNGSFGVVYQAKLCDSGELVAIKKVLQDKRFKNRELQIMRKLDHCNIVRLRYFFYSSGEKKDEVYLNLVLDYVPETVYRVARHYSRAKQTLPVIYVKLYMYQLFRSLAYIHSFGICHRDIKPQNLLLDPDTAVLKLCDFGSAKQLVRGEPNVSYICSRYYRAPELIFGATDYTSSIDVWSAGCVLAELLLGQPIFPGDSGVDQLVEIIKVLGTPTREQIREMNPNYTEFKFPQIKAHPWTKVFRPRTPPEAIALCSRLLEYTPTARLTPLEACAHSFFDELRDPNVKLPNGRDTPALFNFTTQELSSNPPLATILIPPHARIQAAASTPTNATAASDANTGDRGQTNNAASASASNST
Outline: as §1

[3] = 1 nM GSK3α, 4 μM ATP, 30 minute preincubation, Table 16, read-out: GSK3-A TR-FRET BIOCHEMICAL (TR-FRET), IC50
[4] = 1 nM GSK3b, 2 μM ATP, 30 minute preincubation, Table 16, read-out: GSK3-B TR-FRET BIOCHEMICAL (TR-FRET), IC50
[5] = 1 nM GSK3α, 4 μM ATP, 30 minute preincubation, geometric mean, read-out: GSK3-A TR-FRET BIOCHEMICAL (TR-FRET), GMean, IC50
[6] = 1 nM GSK3b, 2 μM ATP, 30 minute preincubation, geometric mean, read-out: GSK3-B TR-FRET BIOCHEMICAL (TR-FRET), GMean, IC50
[7] = read-out: GSK3-A (TR-FRET 1 mM ATP), GMean, IC50, 1 mM ATP, geometric mean
[8] = read-out: GSK3-B (TR-FRET 1 mM ATP), GMean, IC50, 1 mM ATP, geometric mean
[9] = 1 nM GSK3α, 4 μM ATP, 30 minute preincubation, Table 16, read-out: GSK3-A TR-FRET BIOCHEMICAL (TR-FRET)
[10] = 1 nM GSK3b, 2 μM ATP, 30 minute preincubation, Table 16, read-out: GSK3-B TR-FRET BIOCHEMICAL (TR-FRET)

Chain of GSK3α (GST-full length GSK3α) (P49840 whole entry): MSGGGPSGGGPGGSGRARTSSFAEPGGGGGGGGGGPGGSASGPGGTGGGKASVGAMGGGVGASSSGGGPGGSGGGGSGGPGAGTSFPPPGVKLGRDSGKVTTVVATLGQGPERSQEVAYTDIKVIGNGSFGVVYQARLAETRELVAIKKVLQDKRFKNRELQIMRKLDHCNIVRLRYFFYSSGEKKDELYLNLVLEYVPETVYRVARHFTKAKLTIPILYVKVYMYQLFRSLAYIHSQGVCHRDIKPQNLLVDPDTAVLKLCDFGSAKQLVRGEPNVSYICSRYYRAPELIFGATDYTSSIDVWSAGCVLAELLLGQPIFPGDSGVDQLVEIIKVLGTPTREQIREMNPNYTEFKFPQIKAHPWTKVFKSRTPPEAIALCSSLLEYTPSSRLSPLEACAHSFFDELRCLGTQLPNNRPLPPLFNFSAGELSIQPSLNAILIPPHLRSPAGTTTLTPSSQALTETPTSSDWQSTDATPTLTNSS

Row | IC50 [1, 5] [nM] | IC50 [2, 6] [nM] | IC50 [1, 9] [nM] | IC50 [2, 10] [nM] | also measured | Compound
1 |  |  |  |  | IC50 [1, 3]: 100 to 1000 nM; IC50 [2, 4]: 1000 to 5000 nM | CN(C)C(=O)C1CCC2(CC1)C1=C(CC(C)(C)CC1=O)Nc1n[nH]cc12 (centres unmarked) [Compound 945395]
2 | 1000 to 5000 | > 5000 |  |  |  | CCC1(c2cccc(CN3CCCCC3)c2)C2=C(CC(C)(C)CC2=O)Nc2n[nH]cc21 (centres unmarked) [Compound 819560]
3 |  |  |  |  | IC50 [1, 3]: ≤ 100 nM; IC50 [1, 7]: ≤ 100 nM; IC50 [2, 4]: ≤ 100 nM; IC50 [2, 8]: 100 to 1000 nM | CCC1(c2cccc(N3CCCC3)c2)C2=C(CC(C)(C)CC2=O)Nc2n[nH]c(C)c21 (centres unmarked) [Compound 883874]
4 | 1000 to 5000 | > 5000 |  |  |  | CCC1(c2cccc(-c3ccnc(C)c3)c2)C2=C(CC(C)(C)NC2=O)Nc2n[nH]c(C(F)(F)F)c21 (centres unmarked) [Compound 948773]
5 | ≤ 100 | ≤ 100 |  |  | IC50 [1, 7]: ≤ 100 nM; IC50 [2, 8]: ≤ 100 nM | CCC1(c2cccc(-c3cn(C)nc3C)c2)C2=C(CC(C)(C)NC2=O)Nc2n[nH]c(C(F)(F)F)c21 (centres unmarked) [Compound 948314]
6 | > 5000 | > 5000 |  |  |  | CCC1(c2cccc(-c3cnn(C)c3)c2)C2=C(CC(C)CC2=O)Nc2n[nH]cc21 (centres unmarked) [Compound 823726]
7 |  |  |  |  | IC50 [1, 3]: 100 to 1000 nM; IC50 [2, 4]: 1000 to 5000 nM | CC(=O)N1CCCC2(CC1)C1=C(CC(C)(C)CC1=O)Nc1n[nH]cc12 (centres unmarked) [Compound 889575]
8 | 100 to 1000 | ≤ 100 |  |  | IC50 [1, 7]: ≤ 100 nM; IC50 [2, 8]: ≤ 100 nM | CCC1(c2cccc(N3CCCC3)c2)C2=C(CC(C)(C)CC2=O)Nc2n[nH]c(C(F)(F)F)c21 (centres unmarked) [Compound 819575]
9 |  |  | 100 to 1000 | 100 to 1000 |  | CC(C)c1ccccc1S(=O)(=O)N1CCC2(CC1)C1=C(CC(C)(C)CC1=O)Nc1n[nH]cc12 [Compound 947473]
10 |  |  | ≤ 100 | 100 to 1000 |  | CC1(C)CC(=O)C2=C(C1)Nc1n[nH]cc1C21CCCN(S(=O)(=O)Cc2ccccc2)CC1 (centres unmarked) [Compound 932632]
11 | ≤ 100 | ≤ 100 |  |  |  | CCC1(c2cccc(N3CCCCC3)c2)C2=C(CC(C)(C)CC2=O)Nc2n[nH]c(C)c21 (centres unmarked) [Compound 877311]
12 | ≤ 100 | ≤ 100 |  |  | IC50 [1, 7]: ≤ 100 nM; IC50 [2, 8]: 100 to 1000 nM | CCC1(c2cccc(S(=O)(=O)C(C)C)c2)C2=C(CC(C)(C)NC2=O)Nc2n[nH]c(C)c21 (centres unmarked) [Compound 947876]
13 |  |  | ≤ 100 | ≤ 100 | IC50 [1, 7]: ≤ 100 nM; IC50 [2, 8]: 100 to 1000 nM | CCC1(c2cccc(-c3cc(C)nn3C)c2)C2=C(CC(C)(C)CC2=O)Nc2n[nH]c(C(F)(F)F)c21 (centres unmarked) [Compound 945532]
14 |  |  | 100 to 1000 | > 1700 |  | CC[C@@]1(c2ccccc2)C2=C(Nc3n[nH]cc31)[C@H]1CC[C@H](C1)C2=O [Compound 791270]
15 | 100 to 1000 | 1000 to 5000 |  |  |  | CCC1(c2cccc(-c3cn(C)nc3C(C)C)c2)C2=C(CC(C)(C)NC2=O)Nc2n[nH]cc21 (centres unmarked) [Compound 949111]
16 |  |  |  |  | IC50 [1, 3]: > 5000 nM; IC50 [2, 4]: > 5000 nM | CO[C@H]1C[C@]2(C1)C1=C(CC(C)(C)CC1=O)Nc1n[nH]cc12 [Compound 901473]
17 |  |  | 1000 to 5000 | > 5000 |  | CC[C@@]1(c2ccccc2)C2=C(C[C@@]3(CCNC3=O)CC2=O)Nc2n[nH]cc21 [Compound 950161]
18 |  |  | ≤ 100 | ≤ 100 |  | COc1ccc(F)c(S(=O)(=O)N2CCC3(CC2)C2=C(CC(C)(C)CC2=O)Nc2n[nH]cc23)c1 [Compound 945665]
19 |  |  |  |  | IC50 [1, 3]: ≤ 100 nM; IC50 [2, 4]: 100 to 1000 nM | CCC1(c2cccc(N(C)c3ccc(C(F)(F)F)nc3)c2)C2=C(CC(C)(C)CC2=O)Nc2n[nH]cc21 (centres unmarked) [Compound 932634]
20 |  |  |  |  | IC50 [1, 3]: > 5000 nM; IC50 [2, 4]: > 5000 nM | CC[C@@]1(c2cccc(-c3cnn(Cc4cccc(C(F)(F)F)c4)c3)c2)C2=C(CC(C)(C)NC2=O)Nc2n[nH]cc21 [Compound 949513]
21 |  |  | ≤ 100 | 100 to 1000 |  | CC1(C)CC(=O)C2=C(C1)Nc1n[nH]cc1C21CCN(S(=O)(=O)c2cnc3n2CCC3)CC1 [Compound 947467]

Row | IC50 [1, 5] [nM] | IC50 [2, 6] [nM] | IC50 [1, 9] [nM] | IC50 [2, 10] [nM] | also measured | Compound
22 |  |  |  |  | IC50 [1, 3]: 1000 to 5000 nM; IC50 [2, 4]: > 5000 nM | CC1(C)CC(=O)C2=C(C1)Nc1n[nH]cc1[C@]21CCO[C@H](C(F)(F)F)C1 [Compound 884023]
23 | ≤ 100 | ≤ 100 |  |  | IC50 [1, 7]: 100 to 1000 nM; IC50 [2, 8]: 100 to 1000 nM | CC[C@]1(c2cccc(-c3c(F)cncc3Cl)c2)C2=C(CC(C)(C)NC2=O)Nc2n[nH]cc21 [Compound 948371]
24 |  |  | 100 to 1000 | 100 to 1000 |  | CC1(C)CC(=O)C2=C(C1)Nc1n[nH]cc1C21CCN(CC(F)F)CC1 [Compound 883962]
25 | 100 to 1000 | 1000 to 5000 |  |  |  | CCC1(c2cccc(-c3ccncc3)c2)C2=C(CC(C)CC2=O)Nc2n[nH]cc21 (centres unmarked) [Compound 874316]
26 | 100 to 1000 | 100 to 1000 |  |  |  | CC1(C)CC(=O)C2=C(C1)Nc1n[nH]c(CC(F)(F)F)c1C21CCc2c(F)cccc21 (centres unmarked) [Compound 810590]
27 |  |  |  |  | IC50 [1, 3]: ≤ 100 nM; IC50 [2, 4]: 100 to 1000 nM | CCC1(c2cccc(N(C)C(=O)c3cnn(C)c3)c2)C2=C(CC(C)(C)CC2=O)Nc2n[nH]cc21 (centres unmarked) [Compound 912068]
28 | 100 to 1000 | 1000 to 5000 |  |  |  | CC[C@]1(c2ccccc2)C2=C(Nc3n[nH]cc31)[C@@H](C)C[C@H](C)C2=O [Compound 865198]
29 |  |  |  |  | IC50 [1, 3]: > 5000 nM; IC50 [2, 4]: > 5000 nM | CN1CCC2(C1)C1=C(CC(C)(C)CC1=O)Nc1n[nH]cc12 (centres unmarked) [Compound 841867]
30 | ≤ 100 | ≤ 100 |  |  |  | CC[C@@]1(c2cccc(N3CCOCC3)c2)C2=C(CC(C)(C)NC2=O)Nc2n[nH]c(C(F)(F)F)c21 [Compound 949013]
31 |  |  |  |  | IC50 [1, 3]: ≤ 100 nM; IC50 [1, 7]: 100 to 1000 nM; IC50 [2, 4]: ≤ 100 nM; IC50 [2, 8]: 1000 to 5000 nM | CCC1(c2cccc(-c3ccncc3F)c2)C2=C(CC(C)(C)NC2=O)Nc2n[nH]c(Cl)c21 (centres unmarked) [Compound 949324]
32 |  |  | ≤ 100 | ≤ 100 |  | CCC1(c2cccc(S(=O)(=O)C3COC3)c2)C2=C(CC(C)(C)CC2=O)Nc2n[nH]cc21 (centres unmarked) [Compound 944017]
33 |  |  | 100 to 1000 | 100 to 1000 |  | CC1(C)CC(=O)C2=C(C1)Nc1n[nH]cc1C21CCCN(CC(F)F)CC1 (centres unmarked) [Compound 889574]
34 |  |  | ≤ 100 | 100 to 1000 |  | CC1(C)CC(=O)C2=C(C1)Nc1n[nH]cc1[C@]21C[C@H](c2ccncc2)C1 [Compound 889664]
35 |  |  |  |  | IC50 [1, 3]: 1000 to 5000 nM; IC50 [2, 4]: > 5000 nM | CCC1(c2ccccc2)C2=C(Nc3n[nH]cc31)C1CCC1C2=O (centres unmarked) [Compound 861716]
36 |  |  |  |  | IC50 [1, 3]: ≤ 100 nM; IC50 [2, 4]: 100 to 1000 nM | CC[C@]1(c2cccc(-c3cnn(Cc4cccc(C(F)(F)F)c4)c3)c2)C2=C(CC(C)(C)NC2=O)Nc2n[nH]cc21 [Compound 951848]
37 |  |  | > 5000 | > 5000 |  | CC[C@]1(c2ccccc2)C2=C(Nc3n[nH]cc31)[C@@H]1CC[C@@H](C1)C2=O [Compound 791266]
38 | 100 to 1000 | 100 to 1000 |  |  |  | CCC1(c2cccc(-c3ccnc(C)c3)c2)C2=C(CC(C)(C)NC2=O)Nc2n[nH]c(F)c21 (centres unmarked) [Compound 949001]
39 |  |  | ≤ 100 | ≤ 100 | IC50 [1, 7]: 100 to 1000 nM; IC50 [2, 8]: 1000 to 5000 nM | CC[C@]1(c2cccc([C@H](C)c3ncccn3)c2)C2=C(CC(C)(C)CC2=O)Nc2n[nH]cc21 [Compound 948060]
40 |  |  | ≤ 100 | 100 to 1000 |  | CCn1nc(C)cc1S(=O)(=O)N1CCC2(CC1)C1=C(CC(C)(C)CC1=O)Nc1n[nH]cc12 [Compound 947609]
41 |  |  |  |  | IC50 ([1]; 1 nM GSK3α, 4 μM ATP, 30 minute preincubation, read-out: GSK3-A TR-FRET BIOCHEMICAL (TR-FRET), IC50): ≤ 100 nM; IC50 ([2]; 1 nM GSK3b, 2 μM ATP, 30 minute preincubation, read-out: GSK3-B TR-FRET BIOCHEMICAL (TR-FRET), IC50): ≤ 100 nM | CC1(C)CC(=O)C2=C(C1)Nc1n[nH]cc1C21COC2(CN(C(=O)C(C)(C)F)C2)C1 (centres unmarked) [Compound 947276]
